The assay has as its system HCV 1b genotype. Briefly: HCV replicon assay (HCV-neo replicon cells, wild-type). It is filed as cell-based, Hepatitis C virus. The conditions noted are these: Hepatitis C virus, HCV 1b genotype replicon. Put shortly: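 Inhibition was tested in replicon-bearing cells, both wild-type HCV-neo and lines with NS5A resistance substitutions, using the O'Boyle et al. 2005 replicon method or luciferase-reporter formats.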

Where [1] appears, read: class symbol, read-out: EC50 Range against HCV 1b.

The values below come from US8735398B2 (Bristol-Myers Squibb Company, priority 2009, dated 2014).

Like-named read-outs stand apart in the source and are kept apart here.

For `O=C(Nc1ccc(-c2ccc(-c3ccc(NC(=O)[C@@H]4CCCN4C(=O)Cc4ccccc4)cc3)s2)cc1)[C@@H]1CCCN1C(=O)Cc1ccccc1` [OL-22, (2S,2′S)-N,N′-(2,5-thienediyldi-4,1-phenylene)bis(1-(phenylacetyl)-2-pyrrolidinecarboxamide)], under setting [1], the concentration for a half-maximal effect (EC50) is 4.57 to 99 nM.
`O=C(Nc1ccc(-c2ccc(-c3ccc(NC(=O)[C@@H]4CCCN4C(=O)OCc4ccccc4)cc3)s2)cc1)[C@@H]1CCCN1C(=O)OCc1ccccc1` [OL-23, (2S,2′S)-2,2′-[2,5-thienediylbis(4,1-phenyleneiminocarbonyl)]bis-1-pyrrolidinecarboxylic acid, bis(phenylmethyl) ester]: the EC50 under setting [1] was in the range of 4.57 to 99 nM.
For `CC(=O)N1CCC[C@H]1C(=O)Nc1ccc(-c2ccc(-c3ccc(NC(=O)[C@@H]4CCCN4C(C)=O)cc3)s2)cc1` [OL-24, (2S,2′S)-N,N′-(2,5-thienediyldi-4,1-phenylene)bis[1-acetyl-2-pyrrolidinecarboxamide]], the concentration for a half-maximal effect (EC50) by setting is: under setting [1], 100 to 999 nM; (read-out: EC50 1b) 620 nM.
As to `O=C(Nc1cccc(-c2ccc(-c3cccc(NC(=O)[C@@H]4CCCN4C(=O)Cc4ccccc4)c3)s2)c1)[C@@H]1CCCN1C(=O)Cc1ccccc1` [OL-25, (2S,2′S)-N,N′-(2,5-thienediyldi-3,1-phenylene)bis[1-(phenylacetyl)-2-pyrrolidinecarboxamide]], under setting [1], the concentration for a half-maximal effect (EC50) lay within 4.57 to 99 nM.
On to `O=C(Nc1ccc(-c2cc(-c3ccc(NC(=O)[C@@H]4CCCN4C(=O)OCc4ccccc4)cc3)[nH]n2)cc1)[C@@H]1CCCN1C(=O)OCc1ccccc1` [OL-26, (2S,2′S)-2,2′-[1H-pyrazole-3,5-diylbis(4,1-phenyleneiminocarbonyl)]bis-1-pyrrolidinecarboxylic acid, bis(phenylmethyl) ester], for which the EC50 under setting [1] lay within 4.57 to 99 nM.
As to `O=C(Nc1ccc(-c2cc(-c3ccc(NC(=O)[C@@H]4CCCN4C(=O)Cc4ccccc4)cc3)[nH]n2)cc1)[C@@H]1CCCN1C(=O)Cc1ccccc1` [OL-27, (2S,2′S)-N,N′-(1H-pyrazole-3,5-diyldi-4,1-phenylene)bis[1-(phenylacetyl)-2-pyrrolidinecarboxamide]], the EC50 is, setting by setting: under setting [1], 4.57 to 99 nM; (read-out: EC50 1b) 10 nM.
In the case of `O=C(Nc1ccc(-c2cc(-c3ccc(NC(=O)[C@@H]4C[C@@H](O)CN4C(=O)Cc4ccccc4)cc3)[nH]n2)cc1)[C@@H]1C[C@@H](O)CN1C(=O)Cc1ccccc1` [OL-28, (2S,4R,2′S,4′R)-N,N′-(1H-pyrazole-3,5-diyldi-4,1-phenylene)bis(4-hydroxy-1-(phenylacetyl)-2-pyrrolidinecarboxamide)], the EC50 under setting [1] fell in the range of 4.57 to 99 nM.
Take `CC(=O)N1CCC[C@H]1C(=O)Nc1ccc(-c2cc(-c3ccc(NC(=O)[C@@H]4CCCN4C(C)=O)cc3)[nH]n2)cc1` [OL-29, (2S,2′S)-N,N′-(1H-pyrazole-3,5-diyldi-4,1-phenylene)bis(1-acetyl-2-pyrrolidinecarboxamide)]: the concentration for a half-maximal effect (EC50) by setting is: under setting [1], 1000 to 10000 nM; (read-out: EC50 1b) 4550 nM.
Consider `CC(=O)N1CC=C[C@H]1C(=O)Nc1ccc(-c2cc(-c3ccc(NC(=O)[C@@H]4C=CCN4C(C)=O)cc3)[nH]n2)cc1` [OL-30, (2S,2′S)-N,N′-(1H-pyrazole-3,5-diyldi-4,1-phenylene)bis(1-acetyl-2,5-dihydro-1H-pyrrole-2-carboxamide)], for which the 50% effective concentration (EC50) under setting [1] lay in the range of 1000 to 10000 nM.
In the case of `CC(C)C(=O)N1CCC[C@H]1C(=O)Nc1ccc(-c2cc(-c3ccc(NC(=O)[C@@H]4CCCN4C(=O)C(C)C)cc3)[nH]n2)cc1` [OL-31, (2S,2′S)-N,N′-(1H-pyrazole-3,5-diyldi-4,1-phenylene)bis(1-isobutyryl-2-pyrrolidinecarboxamide)], the half-maximal effective concentration (EC50) under setting [1] was in the range of 100 to 999 nM.
Same read-out and setting: the result for `CCC(=O)N1CCC[C@H]1C(=O)Nc1ccc(-c2cc(-c3ccc(NC(=O)[C@@H]4CCCN4C(=O)CC)cc3)[nH]n2)cc1` [OL-32, (2S,2′S)-N,N′-(1H-pyrazole-3,5-diyldi-4,1-phenylene)bis(1-propionyl-2-pyrrolidinecarboxamide)] reads 1000 to 10000 nM.
On to `O=C(Nc1ccc(-c2cc(-c3ccc(NC(=O)[C@@H]4CCCN4C(=O)C4CCC4)cc3)[nH]n2)cc1)[C@@H]1CCCN1C(=O)C1CCC1` [OL-33, (2S,2′S)-N,N′-(1H-pyrazole-3,5-diyldi-4,1-phenylene)bis(1-(cyclobutylcarbonyl)-2-pyrrolidinecarboxamide)], for which, under setting [1], the EC50 was in the range of 100 to 999 nM.
For `O=C(Nc1ccc(-c2cc(-c3ccc(NC(=O)[C@@H]4CCCN4C(=O)c4ccncc4)cc3)[nH]n2)cc1)[C@@H]1CCCN1C(=O)c1ccncc1` [OL-34, (2S,2′S)-N,N′-(1H-pyrazole-3,5-diyldi-4,1-phenylene)bis(1-isonicotinoyl-2-pyrrolidinecarboxamide)], the EC50 under setting [1] was in the range of 1000 to 10000 nM.
In the case of `O=C(Nc1ccc(-c2cc(-c3ccc(NC(=O)[C@@H]4CCCN4C(=O)C4CC4)cc3)[nH]n2)cc1)[C@@H]1CCCN1C(=O)C1CC1` [OL-35, (2S,2′S)-N,N′-(1H-pyrazole-3,5-diyldi-4,1-phenylene)bis(1-(cyclopropylcarbonyl)-2-pyrrolidinecarboxamide)], the half-maximal effective concentration (EC50) reads like this: under setting [1], 1000 to 10000 nM; (read-out: EC50 1b) 8250 nM.
Regarding `CC(=O)N1CCC[C@H]1C(=O)Nc1ccc(-c2cc(-c3ccc(NC(=O)[C@@H]4CCCN4C(=O)Cc4ccccc4)cc3)n[nH]2)cc1` [OL-36, (2S)-1-acetyl-N-(4-(3-(4-((((2S)-1-(phenylacetyl)-2-pyrrolidinyl)carbonyl)amino)phenyl)-1H-pyrazol-5-yl)phenyl)-2-pyrrolidinecarboxamide], the half-maximal effective concentration (EC50) under setting [1] fell in the range of 100 to 999 nM.
On the same count and under the same terms, the result for `O=C(Nc1ccc(-c2cc(-c3ccc(NC(=O)[C@@H]4C=CCN4C(=O)C4CC4)cc3)[nH]n2)cc1)[C@@H]1C=CCN1C(=O)C1CC1` [OL-37, (2S,2′S)-N,N′-(1H-pyrazole-3,5-diyldi-4,1-phenylene)bis(1-(cyclopropylcarbonyl)-2,5-dihydro-1H-pyrrole-2-carboxamide)] reads 1000 to 10000 nM.
For `O=C(Nc1ccc(-c2cc(-c3ccc(NC(=O)[C@@H]4C=CCN4C(=O)C4CCC4)cc3)[nH]n2)cc1)[C@@H]1C=CCN1C(=O)C1CCC1` [OL-38, (2S,2′S)-N,N′-(1H-pyrazole-3,5-diyldi-4,1-phenylene)bis(1-(cyclobutylcarbonyl)-2,5-dihydro-1H-pyrrole-2-carboxamide)], the EC50 by setting is: under setting [1], 1000 to 10000 nM; (read-out: EC50 1b) 10000 nM.
As to `O=C(Nc1ccc(-c2cc(-c3ccc(NC(=O)[C@@H]4C=CCN4C(=O)CC4CCCC4)cc3)[nH]n2)cc1)[C@@H]1C=CCN1C(=O)CC1CCCC1` [OL-39, (2S,2′S)-N,N′-(1H-pyrazole-3,5-diyldi-4,1-phenylene)bis[1-(cyclopentylacetyl)-2,5-dihydro-1H-pyrrole-2-carboxamide]], under setting [1], the EC50 lay within 1000 to 10000 nM.
Same read-out and setting: for `O=C(Nc1ccc(-c2cc(-c3ccc(NC(=O)[C@@H]4CCCN4C(=O)c4nc(Cl)cc5ccccc45)cc3)[nH]n2)cc1)[C@@H]1CCCN1C(=O)c1nc(Cl)cc2ccccc12` [OL-40, (2S,2′S)-N,N′-(1H-pyrazole-3,5-diyldi-4,1-phenylene)bis(1-((3-chloro-1-isoquinolinyl)carbonyl)-2-pyrrolidinecarboxamide)] the value was 4.57 to 99 nM; for `COc1cccc2c(C(=O)N3CCC[C@H]3C(=O)Nc3ccc(-c4cc(-c5ccc(NC(=O)[C@@H]6CCCN6C(=O)c6nc(Cl)cc7c(OC)cccc67)cc5)[nH]n4)cc3)nc(Cl)cc12` [OL-41, (2S,2′S)-N,N′-(1H-pyrazole-3,5-diyldi-4,1-phenylene)bis(1-((3-chloro-5-methoxy-1-isoquinolinyl)carbonyl)-2-pyrrolidinecarboxamide)], 4.57 to 99 nM.
